# Tests used:
# [1] = method code SF, from DOI: 10.1021/jm00213a023, PMID: 321779
# [2] = method code SF-AS, from DOI: 10.1021/jm00213a023, PMID: 321779
# [3] = method code SF-C, from DOI: 10.1021/jm00213a023, PMID: 321779
SMILES,logP [2],also measured
Nc1ccc(C(=O)O)cc1N1C(=O)CSC1=S,–,logP [1]: 1.66
CCOc1cc(N)ccc1C(=O)O,–,logP [1]: 0.99
Nc1ccc(C(=O)O)cc1N,0.13,–
Nc1ccc(C(=O)O)c(I)c1,1.65,–
Nc1ccc(C(=O)O)c(N)c1,-0.31,–
Nc1ccc(C(=O)O)cc1O,0.5,–
COc1cc(N)ccc1C(=O)O,0.45,–
CCCCCCCCOc1cc(N)ccc1C(=O)O,3.77,–
Nc1ccc(C(=O)O)c(Cl)c1,1.33,–
Nc1ccc(C(=O)O)c([N+](=O)[O-])c1,1.21,–
Nc1ccc(C(=O)O)cc1Br,2.23,–
Cc1cc(N)ccc1C(=O)O,–,logP [3]: 1.14
Nc1ccc(C(=O)O)c(Br)c1,1.49,–
Nc1ccc(C(=O)O)cc1I,2.36,–

# Continued, in another order:
logP [2],SMILES,also measured
2.3,CC(C)CCOc1cc(N)ccc1C(=O)O,–
3.37,CCCCCCCOc1cc(N)ccc1C(=O)O,–
1.24,CCCCOc1cc(N)ccc1C(=O)O,–
1.41,Nc1ccc(C(=O)O)cc1F,–
2.38,CCCCCOc1cc(N)ccc1C(=O)O,–
2.35,Nc1ccc(C(=O)O)cc1Cl,–
1.29,Nc1ccc(C(=O)O)c(F)c1,–
1.25,C=CCOc1cc(N)ccc1C(=O)O,–

# Reference: the SangsterLogP compilation
